Assay results published in publication PMC9537510, “Reduction of stress responses in honey bees by synthetic ligands targeting an allatostatin receptor” (Scientific Reports, 2022).
Each block holds one molecule with its values, some of them ahead of it.

Assays:
Format in all cases: cell-based
[1] = target: T1, allatostatin A receptor (ASTA-R) (Apis mellifera, UniProt A0A7M7ILT1); assay: competition binding with fluorescence-labeled ASTA on ASTA-R-transfected HEK cells
T1 construct: gene LOC413582; receptor expressed in transfected HEK293T cells (NCBI: XP_006560262.1 used for the model)
T1 sequence (A0A7M7ILT1 1-361): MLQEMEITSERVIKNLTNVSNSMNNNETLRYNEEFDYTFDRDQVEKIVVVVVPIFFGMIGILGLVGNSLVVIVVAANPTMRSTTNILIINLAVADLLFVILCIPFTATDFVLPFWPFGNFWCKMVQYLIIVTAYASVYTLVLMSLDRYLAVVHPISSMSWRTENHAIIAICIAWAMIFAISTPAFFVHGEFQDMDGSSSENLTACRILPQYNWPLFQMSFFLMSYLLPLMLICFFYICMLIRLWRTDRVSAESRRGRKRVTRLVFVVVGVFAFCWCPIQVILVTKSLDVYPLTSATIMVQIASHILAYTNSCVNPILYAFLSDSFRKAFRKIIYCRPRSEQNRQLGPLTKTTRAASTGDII

[2] = target: T1, allatostatin A receptor (ASTA-R); assay: competition binding with fluorescence-labeled ASTA on ASTA-R-transfected HEK cells; also cAMP antagonism
[3] = target: T1, allatostatin A receptor (ASTA-R); assay: reversal of ASTA inhibition of forskolin-induced cAMP in ASTA-R-expressing cells; also weak competition binding (IC50 > […])

IC50 [1]: > 10 µM
Compound: O=C(CSCCCc1ccccc1)Nc1cc(C(F)(F)F)ccc1-n1cncn1 [B3, N-(2-(1H-1,2,4-triazol-1-yl)-5-(trifluoromethyl)phenyl)-2-((3-phenylpropyl)thio)acetamide]

IC50 [2]: > 10 µM
Compound: Cc1ccc(-n2cncn2)c(NC(=O)CSCCc2ccccc2)c1 [B5, N-(5-methyl-2-(1H-1,2,4-triazol-1-yl)phenyl)-2-(phenethylthio)acetamide]

Compound: Cc1ccc(-n2cncn2)c(NC(=O)CSCCCc2ccccc2)c1 [B6, N-(5-methyl-2-(1H-1,2,4-triazol-1-yl)phenyl)-2-(phenypropylthio)acetamide]
reversal of ASTA inhibition of forskolin-induced cAMP in ASTA-R-expressing cells [3]: both B5 and B6 act as ASTA antagonists by interacting with ASTA-R
